In PMC6766848, “Inhibition of Pancreatic α-amylase by Resveratrol Derivatives: Biological Activity and Molecular Modelling Evidence for Cooperativity between Viniferin Enantiomers” (Molecules, 2019):

Biological target: T1, Porcine pancreatic α-amylase (Sus scrofa, UniProt P00690)
T1 construct: purchased Sigma-Aldrich (Milan, Italy)
T1 sequence (P00690 16-511): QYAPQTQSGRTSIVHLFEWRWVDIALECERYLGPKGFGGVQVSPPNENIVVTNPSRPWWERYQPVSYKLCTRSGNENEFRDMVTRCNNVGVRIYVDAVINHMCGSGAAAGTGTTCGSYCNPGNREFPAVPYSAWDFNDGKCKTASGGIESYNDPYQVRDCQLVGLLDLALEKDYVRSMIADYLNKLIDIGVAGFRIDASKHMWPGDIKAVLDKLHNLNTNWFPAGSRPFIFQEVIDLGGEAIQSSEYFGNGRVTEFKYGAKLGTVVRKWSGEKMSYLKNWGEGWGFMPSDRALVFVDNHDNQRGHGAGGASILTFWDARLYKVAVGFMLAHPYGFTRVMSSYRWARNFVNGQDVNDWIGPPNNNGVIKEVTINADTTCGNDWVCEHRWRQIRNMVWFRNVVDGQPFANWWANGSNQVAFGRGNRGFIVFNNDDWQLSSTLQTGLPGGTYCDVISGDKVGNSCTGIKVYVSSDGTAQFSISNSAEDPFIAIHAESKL
Assay: Pancreatic α-amylase inhibition (modified K-AMYLSD kit, p-nitrophenyl-α-D-maltoheptaoside substrate)
Assay type: biochemical
Details: for inhibition at 10000 µM: 10 mM final concentration; for Hill cooperativity coefficient (n^H) / Ki: three-parameter Hill equation fit, inhibitor zero to 0.1 mM; for Ki: read-out: Ki^app
Description: The monomeric and dimeric stilbenoids described above were tested for their ability to inhibit the enzyme α-amylase, using acarbose as a reference compound. The method used to evaluate the enzyme activity relies on a two-step procedure. In a first step, α-amylase acts on a modified p-nitrophenyl-α-D-maltoheptaoside, releasing products that may be hydrolyzed by an excess α-glucosidase present in the assay mixture, therefore allowing spectrophotometric quantitation of the released p-nitrophenolate anion.
Porcine pancreatic α-amylase [EC 3.2.1.1] was from Sigma-Aldrich (Milan, Italy). Activity was monitored by using the K-AMYLSD kit from Megazyme (Bray, Ireland), with modifications. An aliquot of α-amylase (0.03 mL, 0.1 μM in 50 mM phosphate buffer, pH 6.8) was added to 0.120 mL of 50 mM phosphate buffer, pH 6.8, in a microtiter plate well. The investigated compounds where then added as methanolic solutions (0.03 mL) of appropriate concentration. The reaction was started by adding 0.02 mL of the substrate solution provided with the kit, resulting in a final concentration of 0.4 μM substrate. The kit-provided substrate solution also contained an excess of thermostable bacterial α-glucosidase, that is required for the release of the p-nitrophenolate anion from the p-nitrophenyl glucosides produced by the activity of α-amylase on the chemically modified maltoheptaoside. At appropriate times, the reaction was stopped by adding 0.1 mL of 0.2 M Na2CO3, and the absorbance was read in a microplate reader set at 405 nm. Blanks were prepared in the absence of the pancreatic α-amylase. […] Acarbose (from a stock solution in methanol) was used as the reference inhibitor. A minimum of three independent replications was carried out for each assay.

COc1cc(/C=C/c2ccc3c(c2)[C@@H](c2cc(OC)cc(OC)c2)[C@H](c2ccc(O)cc2)O3)cc(OC)c1 (relative stereo) [compound 8, pterostilbene-trans-dihydrodimer]
inhibition at 10000 µM (versus controls with 15% MeOH): 28%

Oc1ccc([C@@H]2Oc3ccc(/C=C/c4cc(O)cc(O)c4)cc3[C@H]2c2cc(O)cc(O)c2)cc1 [(R, R)-trans-δ-viniferin]
Hill cooperativity coefficient (n^H): 1.5
Ki: 43 µM

Oc1ccc([C@H]2Oc3ccc(/C=C/c4cc(O)cc(O)c4)cc3[C@@H]2c2cc(O)cc(O)c2)cc1 [(S, S)-trans-δ-viniferin]
Hill cooperativity coefficient (n^H): four
Ki: 58 µM

C[C@H]1O[C@H](O[C@H]2[C@H](O)[C@@H](O)[C@@H](O[C@H]3[C@H](O)[C@@H](O)C(O)O[C@@H]3CO)O[C@@H]2CO)[C@H](O)[C@@H](O)[C@@H]1N[C@H]1C=C(CO)[C@@H](O)[C@H](O)[C@H]1O (stereo partly shown) [acarbose, reference compound]
inhibition at 1000 µM (1 mM final concentration, versus controls with 15% MeOH): 86%

COc1cc(/C=C/c2ccc(O)cc2)cc(OC)c1 [compound 2, pterostilbene]
inhibition at 10000 µM (versus controls with 15% MeOH): 21%

Oc1ccc(C2Oc3ccc(C=Cc4cc(O)cc(O)c4)cc3C2c2cc(O)cc(O)c2)cc1 (stereo not drawn) [compound 5, Trans-δ-viniferin]
inhibition at 10000 µM (versus controls with 15% MeOH): ~90%

Oc1ccc(C=Cc2cc(O)cc3c2C(c2cc(O)cc(O)c2)C(c2ccc(O)cc2)O3)cc1 (stereo not drawn) [compound 6, Trans-ε-viniferin]
inhibition at 10000 µM (versus controls with 15% MeOH): ~90%

Oc1ccc([C@@H]2c3c(O)cc(O)cc3[C@H]3[C@H](c4ccc(O)cc4)c4c(O)cc(O)cc4[C@@H]23)cc1 [compound 7, pallidol]
inhibition at 10000 µM (versus controls with 15% MeOH): 21 to 45%
